Patent publication US20100267561A1, “HERBICIDAL PYRIDAZINONE DERIVATIVES” (priority 2007, published 2010)

How the values were obtained:
Experiment in all cases: Test E pre-/postemergence plant response
Type in all cases: in vivo
[1] = test system: Italian ryegrass (Lolium multiflorum)
From the text: (§1) Seeds of plant species selected from bermudagrass (Cynodon dactylon), Surinam grass (Brachiaria decumbens), large crabgrass (Digitaria sanguinalis), green foxtail (Setaria viridis), goosegrass (Eleusine indica), johnsongrass (Sorghum halepense), kochia (Kochia scoparia), pitted morningglory (Ipomoea lacunosa), purple nutsedge (Cyperus rotundus), common ragweed (Ambrosia elation), black mustard (Brassica nigra), guineagrass (Panicum maximum), dallisgrass (Paspalum dilatatum), barnyardgrass (Echinochloa crus-galli), southern (S.) sandbur (Cenchrus echinatus), common sowthistle (Sonchus oleraceous), prickly sida (Sida spinosa), Italian ryegrass (Lolium multiflorum), common purslane (Portulaca oleracea), broadleaf signalgrass (Brachiaria platyphylla), common groundsel (Senecio vulgaris), common chickweed (Stellaria media), Virginia (V.) dayflower (Commelina virginica), tropical (T.) spiderwort (Commelina benghalensis), annual bluegrass (Poa annua), naked crabgrass (Digitaria nuda), itchgrass (Rottboellia cochinchinensis), quackgrass (Elytrigia repens), Canada horseweed (Conyza canadensis), field bindweed (Convolvulus arvensis), spanishneedles (Bidens bipinnata), common mallow (Malva sylvestris) and Russian thistle (Salsola kali) were planted and treated preemergence with test chemicals formulated in a non-phytotoxic solvent mixture which included a surfactant. At the same time, plants selected from these weed species were treated with postemergence applications of some of the test chemicals formulated in the same manner. Plants ranged in height from 2 to 18 cm (1- to 4-leaf stage) for postemergence treatments.
(§2) Treated plants and controls were maintained in a greenhouse for 14 to 21 days, after which time all species were compared to controls and visually evaluated. Plant response ratings, summarized in Table E, are based on a scale of 0 to 100 where 0 is no effect and 100 is complete control. A dash (-) response means no test result.

[2] = test system: common groundsel (Senecio vulgaris)
From the text: as §1, §2

[3] = test system: black mustard (Brassica nigra); settings: Postemergence, scale 0 to 100
From the text: as §1, §2

[4] = test system: southern (S.) sandbur (Cenchrus echinatus)
From the text: as §1, §2

[5] = test system: annual bluegrass (Poa annua)
From the text: as §1, §2

[6] = test system: johnsongrass (Sorghum halepense)
From the text: as §1, §2

[7] = test system: common purslane (Portulaca oleracea)
From the text: as §1, §2

[8] = test system: purple nutsedge (Cyperus rotundus)
From the text: as §1, §2

[9] = test system: bermudagrass (Cynodon dactylon); settings: Postemergence, scale 0 to 100
From the text: as §1, §2

[10] = test system: quackgrass (Elytrigia repens)
From the text: as §1, §2

[11] = test system: pitted morningglory (Ipomoea lacunosa)
From the text: as §1, §2

[12] = test system: guineagrass (Panicum maximum)
From the text: as §1, §2

[13] = test system: goosegrass (Eleusine indica)
From the text: as §1, §2

[14] = test system: green foxtail (Setaria viridis)
From the text: as §1, §2

[15] = test system: surinam grass (Brachiaria decumbens)
From the text: as §1, §2

[16] = test system: itchgrass (Rottboellia cochinchinensis)
From the text: as §1, §2

[17] = test system: common mallow (Malva sylvestris)
From the text: as §1, §2

[18] = Postemergence, 8 g ai/ha, scale 0 to 100
[19] = Postemergence, 16 g ai/ha; scale 0 to 100
[20] = Postemergence, 31 g ai/ha; scale 0 to 100
[21] = Postemergence, 62 g ai/ha; scale 0 to 100
[22] = 8 g ai/ha, Postemergence, scale 0 to 100

Cc1cc(-c2ccc(Cl)cc2)nn1-c1c(OC(=O)c2cccc(Cl)c2)cnn(C)c1=O [Compound 32]
75: Plant response rating, Ryegrass, Italian [1, 18] | Plant response rating, Sandbur, S. [4, 19] | Plant response rating, Bermudagrass ([9]; 62 g ai/ha) | Plant response rating, Itchgrass [16, 19]
80: Plant response rating, Sandbur, S. [4, 20] | Plant response rating, Sandbur, S. [4, 21] | Plant response rating, Johnsongrass [6, 19] | Plant response rating, Goosegrass [13, 21] | Plant response rating, Surinam Grass [15, 18]
30: Plant response rating, Itchgrass [16, 18]
20: Plant response rating, Bermudagrass ([9]; 16 g ai/ha)
98: Plant response rating, Ryegrass, Italian [1, 21] | Plant response rating, Johnsongrass [6, 20] | Plant response rating, Guineagrass [12, 19] | Plant response rating, Guineagrass [12, 20]
90: Plant response rating, Guineagrass [12, 18] | Plant response rating, Foxtail, Green [14, 21] | Plant response rating, Itchgrass [16, 20] | Plant response rating, Itchgrass [16, 21]
50: Plant response rating, Johnsongrass [6, 18] | Plant response rating, Morningglory [11, 21]
95: Plant response rating, Ryegrass, Italian [1, 19] | Plant response rating, Ryegrass, Italian [1, 20]
100: Plant response rating, Johnsongrass [6, 21] | Plant response rating, Guineagrass [12, 21] | Plant response rating, Surinam Grass [15, 20] | Plant response rating, Surinam Grass [15, 21]
5: Plant response rating, Bermudagrass ([9]; 8 g ai/ha)
0: Plant response rating, Groundsel [2, 18] | Plant response rating, Groundsel [2, 19] | Plant response rating, Groundsel [2, 20] | Plant response rating, Groundsel [2, 21] | Plant response rating, Mustard, Black ([3]; 8 g ai/ha) | Plant response rating, Mustard, Black ([3]; 16 g ai/ha) | Plant response rating, Mustard, Black ([3]; 31 g ai/ha) | Plant response rating, Mustard, Black ([3]; 62 g ai/ha) | Plant response rating, Bluegrass [5, 18] | Plant response rating, Bluegrass [5, 19] | Plant response rating, Bluegrass [5, 20] | Plant response rating, Bluegrass [5, 21] | Plant response rating, Purslane [7, 18] | Plant response rating, Purslane [7, 19] | Plant response rating, Purslane [7, 20] | Plant response rating, Purslane [7, 21] | Plant response rating, Nutsedge, Purple [8, 18] | Plant response rating, Nutsedge, Purple [8, 19] | Plant response rating, Nutsedge, Purple [8, 20] | Plant response rating, Nutsedge, Purple [8, 21] | Plant response rating, Quackgrass [10, 18] | Plant response rating, Quackgrass [10, 19] | Plant response rating, Quackgrass [10, 20] | Plant response rating, Quackgrass [10, 21] | Plant response rating, Morningglory [11, 18] | Plant response rating, Mallow [17, 18] | Plant response rating, Mallow [17, 19] | Plant response rating, Mallow [17, 20] | Plant response rating, Mallow [17, 21]
85: Plant response rating, Foxtail, Green [14, 20]
35: Plant response rating, Morningglory [11, 19] | Plant response rating, Morningglory [11, 20] | Plant response rating, Goosegrass [13, 18] | Plant response rating, Goosegrass [13, 19]
40: Plant response rating, Bermudagrass ([9]; 31 g ai/ha) | Plant response rating, Foxtail, Green [14, 18]
60: Plant response rating, Sandbur, S. [4, 18] | Plant response rating, Goosegrass [13, 20] | Plant response rating, Foxtail, Green [14, 19]

Cc1cc(-c2ccc(Cl)cc2)nn1-c1c(OC(=O)Oc2ccccc2)cnn(C)c1=O [Compound 54]
70: Plant response rating, Foxtail, Green [14, 19]
60: Plant response rating, Sandbur, S. [4, 22] | Plant response rating, Johnsongrass [6, 19]
98: Plant response rating, Foxtail, Green [14, 21]
100: Plant response rating, Ryegrass, Italian [1, 20] | Plant response rating, Ryegrass, Italian [1, 21] | Plant response rating, Johnsongrass [6, 20] | Plant response rating, Johnsongrass [6, 21] | Plant response rating, Guineagrass [12, 21] | Plant response rating, Surinam Grass [15, 20] | Plant response rating, Surinam Grass [15, 21] | Plant response rating, Itchgrass [16, 21]
90: Plant response rating, Sandbur, S. [4, 20] | Plant response rating, Surinam Grass [15, 22] | Plant response rating, Surinam Grass [15, 19] | Plant response rating, Itchgrass [16, 19]
95: Plant response rating, Sandbur, S. [4, 21] | Plant response rating, Guineagrass [12, 22] | Plant response rating, Guineagrass [12, 19] | Plant response rating, Guineagrass [12, 20] | Plant response rating, Goosegrass [13, 21] | Plant response rating, Itchgrass [16, 20]
0: Plant response rating, Groundsel [2, 22] | Plant response rating, Groundsel [2, 19] | Plant response rating, Groundsel [2, 20] | Plant response rating, Mustard, Black ([3]; 8 g ai/ha) | Plant response rating, Mustard, Black ([3]; 16 g ai/ha) | Plant response rating, Mustard, Black ([3]; 31 g ai/ha) | Plant response rating, Mustard, Black ([3]; 62 g ai/ha) | Plant response rating, Bluegrass [5, 22] | Plant response rating, Bluegrass [5, 19] | Plant response rating, Bluegrass [5, 20] | Plant response rating, Bluegrass [5, 21] | Plant response rating, Purslane [7, 22] | Plant response rating, Purslane [7, 19] | Plant response rating, Purslane [7, 20] | Plant response rating, Purslane [7, 21] | Plant response rating, Nutsedge, Purple [8, 22] | Plant response rating, Nutsedge, Purple [8, 19] | Plant response rating, Nutsedge, Purple [8, 20] | Plant response rating, Nutsedge, Purple [8, 21] | Plant response rating, Quackgrass [10, 22] | Plant response rating, Quackgrass [10, 19] | Plant response rating, Quackgrass [10, 20] | Plant response rating, Morningglory [11, 22] | Plant response rating, Morningglory [11, 19] | Plant response rating, Morningglory [11, 20] | Plant response rating, Morningglory [11, 21] | Plant response rating, Goosegrass [13, 22] | Plant response rating, Goosegrass [13, 19] | Plant response rating, Mallow [17, 22] | Plant response rating, Mallow [17, 19] | Plant response rating, Mallow [17, 20] | Plant response rating, Mallow [17, 21]
40: Plant response rating, Bermudagrass ([9]; 31 g ai/ha) | Plant response rating, Foxtail, Green [14, 22]
80: Plant response rating, Ryegrass, Italian [1, 22] | Plant response rating, Ryegrass, Italian [1, 19] | Plant response rating, Sandbur, S. [4, 19] | Plant response rating, Bermudagrass ([9]; 62 g ai/ha) | Plant response rating, Foxtail, Green [14, 20]
50: Plant response rating, Goosegrass [13, 20]
20: Plant response rating, Johnsongrass [6, 22] | Plant response rating, Bermudagrass ([9]; 16 g ai/ha)
35: Plant response rating, Quackgrass [10, 21]
10: Plant response rating, Bermudagrass ([9]; 8 g ai/ha) | Plant response rating, Itchgrass [16, 22]
